How the values were obtained:
[1] = test system: COX-1 mRNA; test: Colonic mRNA expression by RT-PCR in TNBS-induced colitis; format: in vivo, mice; conditions: dose equimolar to mesalamine 50 mg/kg; FIG. 13
Method: (§1) The same model was used as described above. In this example, the effects of mesalamine (50 mg/kg) were compared to those of equimolar doses of Compound XXXV. In addition to measuring the severity of colitis by measuring disease activity score and MPO activity, tissues were processed for measurement of a number of genes for inflammatory cytokines and other mediators.
(§2) In particular, mRNA expression in mice of tumour necrosis factor-alpha (TNF-α), interferon gamma (IFN-[…]γ), colonic interleukin (IL)-1, IL-2, IL-10, IL-12 p40, RANTES, cyclooxygenase (COX)-1, COX-2, constitutive endothelial nitric oxide synthase (eNOS), and inducible NOS (iNOS) was measured as described in Wallace et al. (1999) Gastroenterology 117: 557-566, incorporated herein by reference.
(§3) Briefly, reverse transcription-polymerase chain reaction (RT-PCR) was used to detect and quantify mRNA of the particular cytokine/chemokine/enzyme. Glyceraldehyde-3-phosphate dehydrogenase (GAPDH) was used as the “housekeeping gene” for mRNA expression (i.e., as an internal control). For each sample, the ratio of the amplification of the target gene to the amplification of GAPDH (expression of each is measured by performing densitometry on gels) was obtained. Comparisons were then made between the relative amplification (expression) of the target gene in tissues for the treatment groups in comparison to the expression in tissues from healthy controls. Thus, the data shown in FIGS. 7-14 represent the relative expression of the target gene (normalized to GAPDH expression) as a ratio to the expression in healthy controls.

[2] = test system: eNOS mRNA; test: as above; format: in vivo, mice; conditions: dose equimolar to mesalamine 50 mg/kg; FIG. 14
Method: as §1, §2, §3

[3] = test system: IL-10 mRNA; test: as above; format: in vivo, mice; conditions: dose equimolar to mesalamine 50 mg/kg; normalized to GAPDH, ratio to healthy controls
Method: as §1, §2, §3

[4] = test system: mRNA for several pro-inflammatory cytokines and chemokines; test: as above; format: in vivo, mice; conditions: dose equimolar to mesalamine 50 mg/kg; normalized to GAPDH, ratio to healthy controls
Method: as §1, §2, §3

[5] = test system: mice having TNBS-induced colitis; test: TNBS-induced colitis in mice (disease activity score, colonic MPO activity); format: in vivo, Balb/c mice
Method: A standard experimental animal model of colitis induced by intracolonic administration of 2,4,6-trinitrobenzene sulfonic acid (TNBS) to mice is used in the following example. A detailed description of this model has been published (Santucci et al. (2003) Gastroenterology 124:1381-94) and is incorporated herein by reference. Briefly, 6-8 week old Balb/c mice were given TNBS intracolonically at a dose of 1.5 mg in 0.1 mL of 30% ethanol. The mice were randomized to the various treatment groups (n=6 per group). Beginning one hour later and continuing every 12 h for 5 days, the mice were treated orally with vehicle (1% carboxymethylcellulose (CMC)), 5-ASA (mesalamine) (25, 50 or 75 mg/kg) or with equimolar doses of 2-hydroxy-5-amino-benzoic acid 4-(thioxo-5H-[1,2]dithiol-3-yl)-phenyl ester hydrochloride (Compound XXXV) (130 mg/kg), or with […] (100 mg/kg), 50% (66 mg/kg) and 25% (33 mg/kg) of that dose. The mice were evaluated (blindly) on the final day of the study for the presence of diarrhea and fecal occult blood, and their body weights were measured. […] After sacrifice, a sample of the colon was excised for measurement of myeloperoxidase (MPO) activity, as a marker of granulocyte infiltration. All results were compared to those obtained with healthy mice as well.
FIGS. 3 and 4 show the Disease Activity Index and MPO activity, respectively, using the same experimental animal model of colitis as described above, in which Compound XXXV (130 mg/kg) was compared to equimolar doses of its two constituents, mesalamine (50 mg/kg) and 5-p-hydroxyphenyl-[…] (ADT-OH) (80 mg/kg), and a mixture of mesalamine (50 mg/kg) and ADT-OH (80 mg/kg). *p<0.05 versus the vehicle-treated group. Each group consisted of at least 5 rats.
FIGS. 6 and 7 show the Disease Activity Index and MPO, respectively, using the same experimental animal model of colitis as described above, in which Compound XXVII (100 mg/kg) was compared to equimolar doses of its two constituents, mesalamine (50 mg/kg) and 4-hydroxythiobenzamide (4-HTB) (50 mg/kg), mesalamine alone (50 mg/kg) and 4-HTB alone (50 mg/kg). *p<0.05 versus the vehicle-treated group. Each group consisted of at least 5 rats.
as §1

Nc1ccc(O)c(C(=O)Oc2ccc(-c3cc(=S)ss3)cc2)c1 [Compound XXXV, 5-Amino-2-hydroxy-benzoic acid 4-(5-thioxo-5H-[1,2]dithiol-3-yl)-phenyl ester]
COX-1 mRNA expression [1]: suppressed
eNOS mRNA expression [2]: suppressed
expression of IL-10 mRNA [3]: did not suppress expression of IL-10 mRNA
expression of mRNA for pro-inflammatory cytokines and chemokines [4]: suppressed expression of mRNA for several pro-inflammatory cytokines and chemokines
Disease Activity Index ([5]; Compound XXXV 130 mg/kg vs mesalamine 50 mg/kg, ADT-OH 80 mg/kg and their mixture, FIG. 3): almost twice as effective as either mesalamine alone, ADT-OH alone or a mixture of mesalamine and ADT-OH
MPO activity (granulocyte infiltration) ([5]; Compound XXXV 130 mg/kg, FIG. 4): significantly reduced inflammation
every endpoint of FIGS. 7-14 (MPO activity, disease activity score, mRNA expression) ([5]; dose equimolar to mesalamine 50 mg/kg, compared with mesalamine): superior to mesalamine in every endpoint
Disease Activity Score ([5]; dose-ranging, oral every 12 h for 5 days, equimolar doses of 50 mg/kg and 75 mg/kg, compared with mesalamine, FIG. 1): superior to mesalamine in reducing the activity score
myeloperoxidase (MPO) activity ([5]; dose-ranging, oral every 12 h for 5 days, highest doses tested, FIG. 2): significantly reduced (almost in half)

— US20110098257A1, “DERIVATIVES OF 4- OR 5-AMINOSALICYLIC ACID” (ANTIBE THERAPEUTICS INC., priority 2005, published 2011)
